Legend:
[1] = test system: DLD-1 WT cells; test: DLD-1 WT proliferation under hypoxia or normoxia; type: cell-based; settings: Homo sapiens; WT DLD-1 cells, hypoxic conditions (1% oxygen)
[2] = test system: RPB1 in C342T XPB mutant cell line; test: RPB1 degradation in C342T XPB knock-in cells, western blot; type: cell-based, human; settings: C342T XPB mutant cell line, compound 1 up to 3 mM (so in the source)
Excerpt: Cells and culture conditions. Primary astrocytes (Lonza, Walkersville, Md.; ABM™ Basal Media with AGM™ SingleQuots™ Supplement Pack), fibroblast (ATCC; Fibroblast Basal Medium (ATCC© PCS-201-030™) with Fibroblast Growth Kit-Serum-free (ATCC© PCS-201-040™)), airway epithelial cell (ATCC; Airway Epithelial Cell Basal Medium (ATCC© PCS-300-030™) with Bronchial Epithelial Cell Growth Kit (ATCC© PCS-300-040™)), renal proximal tubule (ATCC; Renal Epithelial Cell Basal Medium (ATCC© PCS-400-030™) with Renal Epithelial Cell Growth Kit (ATCC© PCS-400-040™)), prostate epithelial cell (Lonza; PrEGM™ BulletKit™) and mammary epithelial cell (Lonza; MEBM™ BulletKit™) were kept in a humidified incubator at 37° C. adjusted to 5% CO2. […]
Western blot analysis. […] Antibody-protein complexes were detected using enhanced chemiluminescence (ECL) immunoblotting detection reagent (EMD Millipore).

[3] = test system: RPB1 (RNAPII) in PC3 cells; test: RPB1 degradation in PC3 cells under hypoxia, immunocytochemistry and western blot; type: cell-based, human; settings: PC3, hypoxic but not normoxic conditions, 3 µM compound 1
Method: Western blot analysis. Whole cell lysates were prepared by adding lysis buffer [4% SDS, 20% glycerol, 10% 2-mercaptoethanol, 0.004% bromophenol blue, 0.125 M Tris-HCl (pH 6.8)] to the cell pellets for 30 minutes in ice followed by centrifugation at 12,000×g for 10 minutes then boiling for 5 minutes. For isolation of cytosolic and mitochondrial fractions of cytochrome C, cell pellets were resuspended in CLAMI buffer (250 mM sucrose, 70 mM KCl, […] digitonin in 1×PBS, protease inhibitor cocktail (1 tablet/10 ml CLAMI buffer)) then incubated on ice for 5 minutes. After centrifugation at 12,000×g for 5 minutes at 4° C., supernatant (cytoplasmic fraction) was collected and the pellet resuspended in lysis buffer as described above. Proteins were then separated by SDS-PAGE and transferred to nitrocellulose membranes (Bio-Rad). […] Antibody-protein complexes were detected using enhanced chemiluminescence (ECL) immunoblotting detection reagent (EMD Millipore).
Immunocytochemistry and cytochemistry. […] Glucose uptake was monitored by incubating cells in 200 μM 2-NBDG (ThermoFisher) for 6 hours prior to fixation. Fluorescence was observed under the Nikon Eclipse TE200 Inverted microscope (Nikon Instruments Inc., Melville, N.Y., USA). […] Rpb1 levels were measured using the MEASURE feature of ImageJ where all the background signals were subtracted from the intergrated density of nuclear Rpb1.

CC(C)[C@]12O[C@H]1[C@@H]1O[C@]13[C@]1(O[C@H]1C[C@H]1C4=C(CC[C@@]13C)C(=O)OC4)[C@@H]2OC(=O)CCCO[C@@H]1OC(CO)[C@@H](O)C(O)C1O (stereo in doubt) [Compound 1]
IC50 [1]: 1300 nM | RPB1 level [2]: remained stable | onset of RNAPII (RPB1) degradation [3]: observed as early as 6 h

Source: patent publication US20230134986A1, “GLUCOSE TRIPTOLIDE CONJUGATES AND USES THEREOF” (The Johns Hopkins University, priority 2020, published 2023)
